Experimental data taken from ChEMBL document CHEMBL2157954.
Active and inactive are the calls of the source. No cut-off for these calls is given here.

Experiments:
[1] = species on record: Rattus norvegicus; assay: […] activity in rat with several spinal cord injury assessed as increase in locomotory function; format: functional, organism-based
[2] = species on record: Rattus norvegicus; assay: […] activity in rat with several spinal cord injury assessed as increase in voiding function; format: functional, organism-based
[3] = tested on: Lymphocyte; assay: Immunosuppressive activity against autoimmune lymphocytes assessed as inhibition of cell expansion; format: functional, cell-based
[4] = tested on: Rattus norvegicus; assay: […] activity in rat with several spinal cord injury assessed as increase in locomotory function at 20 mg/kg/day for 7 days; format: functional, organism-based
[5] = tested on: Rattus norvegicus; assay: […] activity in rat with several spinal cord injury assessed as increase in voiding function at 20 mg/kg/day for 7 days; format: functional, organism-based

Row | SMILES | Activity [1] | Activity [2] | inhibition [3] | Activity [4] | Activity [5]
1 | C/C(O)=C(\C#N)C(=O)Nc1ccc(C(F)(F)F)cc1 | Active | Active |  |  | 
2 | Cc1oncc1C(=O)Nc1ccc(C(F)(F)F)cc1 |  |  | Active | Active | Active
3 | Cc1cc(NC(=O)/C(C#N)=C(\O)C2CC2)ccc1C(F)(F)F | Active | Active |  |  | 
